Experimental data as given in PubChem BioAssay AID330 (DTP/NCI, 2004).
Where “and” joins values, the source holds several entries; their conditions need not be identical. Equal values may be shown once. Inconclusive results and toxic doses are left out. How the source made its calls: active means survival T/C of 150% or more; inactive means T/C below 125% in these data. Square brackets hold non-standard residues; d marks the D form. Peptide text beside a SMILES is read from it. * marks the point of attachment. ξ: configuration not given here. Cbz = O=C(OCc1ccccc1)*; ξNva = CCCC(N)C(=O)O

Tested on: P388 leukemia ip, CD2F1 mice, survival T/C
Test: NCI In Vivo Anticancer Drug Screen. Data for tumor model P388 Leukemia (intraperitoneal) in CD2F1 (CDF1) mice
Conditions: endpoint: median survival time, higher = longer survival
In short: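 Mice carrying the transplanted tumor received test compound or vehicle. Survival was recorded in each group, and the value is the treated-group measurement divided by that of the vehicle-treated control group.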

[1] = dose: 60.0 mg/kg/injection, schedule: Q01DX005 (ip), vehicle: saline with Tween-80
[2] = dose: 50.0 mg/kg/injection, schedule: Q01DX005 (ip), vehicle: Klucel (hydroxypropylcellulose) (HPC)
[3] = dose: 100.0 mg/kg/injection, schedule: Q01DX005 (ip), vehicle: Klucel (hydroxypropylcellulose) (HPC)
[4] = dose: 120.0 mg/kg/injection, schedule: Q01DX005 (ip), vehicle: saline with Tween-80
[5] = dose: 240.0 mg/kg/injection, schedule: Q01DX005 (ip), vehicle: saline with Tween-80

Measured: T/C

c1ccc(-c2c3ccccc3c(-c3ccccc3)c3c(-c4ccccc4)c4ccccc4c(-c4ccccc4)c23)cc1
inactive: dose: 15.0 mg/kg/injection, schedule: Q01DX005 (ip), vehicle: saline with Tween-80 105 % of control | dose: 30.0 mg/kg/injection, schedule: Q01DX005 (ip), vehicle: saline with Tween-80 106 % of control | [1] 91 % of control and 94 % of control

Nc1nc(=O)nc2[nH]c3c4cccc5cccc(c3nc12)c54 (tested in a mixture with another compound)
inactive: dose: 12.5 mg/kg/injection, schedule: Q01DX005 (ip), vehicle: Klucel (hydroxypropylcellulose) (HPC) 92 % of control and 98 % of control | dose: 25.0 mg/kg/injection, schedule: Q01DX005 (ip), vehicle: Klucel (hydroxypropylcellulose) (HPC) 101 % of control and 104 % of control | [2] 100 % of control and 106 % of control and 112 % of control | [3] 116 % of control

CCOC(=O)c1cnc2c(c(Br)cc3c4cc(Br)ccc4[nH]c32)c1Cl
inactive: dose: 6.25 mg/kg/injection, schedule: Q01DX009 (ip), vehicle: saline 112 % of control | dose: 12.5 mg/kg/injection, schedule: Q01DX009 (ip), vehicle: saline 107 % of control | dose: 25.0 mg/kg/injection, schedule: Q01DX009 (ip), vehicle: saline 111 % of control | dose: 50.0 mg/kg/injection, schedule: Q01DX009 (ip), vehicle: saline 97 % of control | dose: 100.0 mg/kg/injection, schedule: Q01DX009 (ip), vehicle: saline 91 % of control | dose: 200.0 mg/kg/injection, schedule: Q01DX009 (ip), vehicle: saline 88 % of control

COc1cc2c(/C=N/Nc3ccccc3[N+](=O)[O-])c(Cl)[nH]c2cc1C
inactive: dose: 50.0 mg/kg/injection, schedule: Q01DX001 (ip), vehicle: Klucel (hydroxypropylcellulose) (HPC) 107 % of control | dose: 100.0 mg/kg/injection, schedule: Q01DX001 (ip), vehicle: Klucel (hydroxypropylcellulose) (HPC) 98 % of control and 87 % of control | dose: 200.0 mg/kg/injection, schedule: Q01DX001 (ip), vehicle: Klucel (hydroxypropylcellulose) (HPC) 98 % of control and 87 % of control | dose: 400.0 mg/kg/injection, schedule: Q01DX001 (ip), vehicle: Klucel (hydroxypropylcellulose) (HPC) 90 % of control

Cc1c2ccncc2c(CNCCO)c2c3ccccc3n(C)c12
inactive: dose: 5.0 mg/kg/injection, schedule: Q01DX005 (ip), vehicle: saline 110 % of control | dose: 10.0 mg/kg/injection, schedule: Q01DX005 (ip), vehicle: saline 108 % of control | dose: 20.0 mg/kg/injection, schedule: Q01DX005 (ip), vehicle: saline 110 % of control

N#Cc1c(N)nc(N)nc1Nc1ccc(Cl)cc1
inactive: [1] 113 % of control | [4] 110 % of control | [5] 115 % of control

CCOC(=O)Nc1cc2c(c(N)n1)N=C(c1ccc(C)cc1)CN2
inactive: dose: 1.0 mg/kg/injection, schedule: Q01DX005 (ip), vehicle: saline with Tween-80 109 % of control | dose: 3.0 mg/kg/injection, schedule: Q01DX005 (ip), vehicle: saline with Tween-80 109 % of control | dose: 6.0 mg/kg/injection, schedule: Q01DX005 (ip), vehicle: saline with Tween-80 121 % of control

Cc1ccccc1NC(=O)C1C(=O)N(c2ccccc2C)C(=O)/C1=N/O (stereo not given)
inactive: [1] 99 % of control | [4] 97 % of control | [5] 94 % of control

N#CCCSC(=S)N1CCCC1=O
inactive: dose: 50.0 mg/kg/injection, schedule: Q01DX005 (ip), vehicle: saline with Tween-80 103 % of control | dose: 100.0 mg/kg/injection, schedule: Q01DX005 (ip), vehicle: saline with Tween-80 104 % of control | dose: 200.0 mg/kg/injection, schedule: Q01DX005 (ip), vehicle: saline with Tween-80 114 % of control

BrC1=NOC2c3cccc4cccc(c34)C12 (stereo not given)
inactive: [1] 108 % of control | [4] 106 % of control | [5] 105 % of control

CCCC(NC(=O)CNC(=O)OCc1ccccc1)C(=O)O (stereo not drawn) (Cbz-Gly-[ξNva]-OH)
inactive: [2] 104 % of control | [3] 98 % of control

CCCCCCCCSCc1ccc(Nc2ccc(Nc3ccc(CSCCCCCCCC)cc3)cc2)cc1
inactive: dose: 50.0 mg/kg/injection, schedule: Q01DX006 (ip), vehicle: other 102 % of control | dose: 50.0 mg/kg/injection, schedule: Q01DX009 (ip), vehicle: acetone 101 % of control | dose: 100.0 mg/kg/injection, schedule: Q01DX006 (ip), vehicle: other 116 % of control | dose: 100.0 mg/kg/injection, schedule: Q01DX009 (ip), vehicle: acetone 107 % of control | dose: 200.0 mg/kg/injection, schedule: Q01DX006 (ip), vehicle: other 117 % of control

CC(=O)OCC1OC(Nc2[nH]c(=O)n(C)c(=O)c2N=O)C(OC(C)=O)C(OC(C)=O)C1OC(C)=O (stereo not given)
inactive: dose: 100.0 mg/kg/injection, schedule: Q04DX002 (ip), vehicle: saline with Tween-80 104 % of control | dose: 200.0 mg/kg/injection, schedule: Q04DX002 (ip), vehicle: saline with Tween-80 103 % of control | dose: 400.0 mg/kg/injection, schedule: Q04DX002 (ip), vehicle: saline with Tween-80 102 % of control
